{"source": "patent US20210221791A1", "about": "“COMPOUNDS” (UNIVERSITETET I OSLO, priority 2016, published 2021)", "key": {"rH glyoxylase II": {"molecular_target": "rH glyoxylase II (Homo sapiens, UniProt Q16775)", "experiment": "Interaction with zinc-containing human enzyme", "assay_type": "biochemical", "settings": "62.5-500 μM, 30 min, 25° C., 0.4 ng/μL enzyme", "experimental": "The initial reaction velocity was measured at 405 nm. EDTA was included as a representative example of the APC chelator class described above."}, "[1]": {"system": "resistant gram-negative MBL-based bacteria", "experiment": "MICx: lowest adjuvant concentration giving carbapenem MIC ≤2 mg/L", "assay_type": "cell-based", "settings": "25 mg/L Example 26; K66-45 and K34-7; meropenem and doripenem"}, "[2]": {"system": "Klebsiella pneumoniae strain 50752501 harbouring NDM-1", "experiment": "In vivo infection study in neutropenic mice", "parameters": "species or system Klebsiella pneumoniae; host NMRI mice", "settings": "for Score at sampling: sampling T = 5 h; for lower CFU levels compared to vehicle treatment: combination Example 26 (10-100 mg/kg) and meropenem 33 mg/kg", "experimental": "The purpose of this study was to investigate the synergy between a typical example of the present invention and a state of art carbapenem in a clinically relevant multiresistant Gram-negative bacterial strain harboring a metallo-β-lactamase in the treatment of live mice infected with the bacterial strain.\nThe mice were rendered neutropenic by injecting 0.5 ml cyclophosphamide solution intraperitoneally 4 days (approximately 200 mg/kg) and 1 day (approximately 100 mg/kg) prior to inoculation.\nFresh overnight colonies from a 5% Horse Blood Agar plate were suspended and diluted in sterile saline to approximately and 10^7 CFU/ml. Mice were inoculated intraperitoneally with 0.5 ml of the suspension. Approximately ½ hr prior to inoculation, mice were treated orally with 45 μl neurophen (20 mg ibuprofen/ml corresponding to approximately 30 mg/kg) as a pain relief.\nMice were treated subcutaneously in the neck region with.\nColony counts were determined from blood and peritoneal fluid at 1 and 5 hrs post inoculation. […] The mice were sacrificed immediately after blood sampling and a total of 2 ml sterile saline was injected i.p. and the abdomen gently massaged before it was opened and fluid sampled with a pipette. Each sample was then 10 fold serial diluted in saline and 20-μl spots, ranging from undiluted to a 10^6 dilution, were applied on agar plates in duplicates. […] All agar plates were incubated 18-22 hrs at 35° C. in ambient air."}, "VIM-2": {"molecular_target": "VIM-2 (Escherichia coli, UniProt Q5U7L7)", "assay_type": "biochemical", "experimental": "The eluent used was Chelex-treated HEPES 50 mM buffer, pH 7.5. […] In all experiments, 16 aliquots of 250 μL were taken from the PD-10 column runsout and enzyme activity was analysed. Enzyme activity was measured by adding Nitrocefin as a reporter substrate (final concentration of 50 μM).\nTo investigate if more extreme time-dependent and concentration-dependent conditions could restore enzyme activity, aliquots having final concentrations of 30 nM column-treated enzyme and 1000 μM Zn^2+ on ice and at room temperature over prolonged time."}, "[3]": {"system": "human serum albumin and α1-acid glycoprotein (AGP)", "settings": "500 μM Example 26; HSA:AGP 24:1 up to 140 μM", "protocol": "Enzymes in the kit are immobilized at a solid phase. […] Buffer without inhibitor was included as a control. After incubation, the suspensions were centrifuged and diluted 1:10 in 50 mM HEPES buffer pH 7.5 supplemented with 1 μM zinc^2+ and VIM-2 (final concentration 1 nM)."}, "[4]": {"system": "meropenem-resistant E. coli", "experiment": "Checkerboard MIC assay of Example 26 and meropenem", "assay_type": "cell-based", "settings": "for some of the E. coli / K. pneumonia strains", "experimental": "A checkerboard MIC assay was using the broth dilution method according to CLSI guidelines. […] Dilutions to 4 mg/ml was performed by adding+4.75 ml sterile saline to 0.25 ml of the stock solution, and dilutions to 512 μg/ml was performed by adding 10.9 ml MH-broth to the 4 mg/ml solution. Inoculums of bacterial strains as described in Table 4 were prepared by suspending fresh overnight colonies from 5% horse blood agar were to a turbidity of 0.5 McFarland and further diluted to 1×10^6 CFU/ml in MH-broth. Aliquots of 50 μl of MH-broth were added to each well of polystyrene microtiter plates. […] The plates were incubated at 35° C., 16-20 hours."}, "[5]": {"system": "resistant clinical isolate of Klebsiella pneumoniae harboring NDM-1", "experiment": "Time-kill study with meropenem", "assay_type": "cell-based", "settings": "Example 26 + 4 mg/L meropenem, irrespective of Example 26 concentration; stays below LOD for 30 hrs", "experimental": "Mueller-Hinton broth (MHB) was warmed from fridge temperature cold. […] A sample of Example 26 was dissolved in DMSO.\nThe 96-well plates were prepared using a multi-channel pipette, adding […] PBS to columns 2-9, or the required number of dilutions needed in the experiment. Each Inoculum was prepared by picking a single colony from the fresh plate that was disperged into 1 mL MHB, the loop was agitated to ensure all the colony comes off the loop. The tube was Vortex mixed, and a 100 μL aliquot was taken from the tube into 9.9 mL of MHB into the media bottle. […] The procedure was repeated for as many samples needed in the study. Aliquots of 5 mL inoculum were transferred to as many media bottles as needed, e.g. 4 mg/L MEM, 4 mg/L MEM+50 μM test substance, 4 mg/L MEM+100 μM test substance. Then […] aliquots were taken from each culture and added to Column 1 on the 96 well plate, e.g. culture 1: 50 μl into A1, […] into B1 etc. for time point 0 h. Then […] MEM was added into each bottle, followed by the required amount of test substance. The bottles were mixed gently to avoid formation of bubbles, and incubated in a secondary container at 37° C. at 180 rpm. Finally, serial dilutions were performed using multi-channel pipette taking 30 μL for column 1, adding to column 2, mixing well, repeating from column 2 to 3 with clean pipette tips."}, "[6]": {"experiment": "Solution stability measured indirectly by MIC studies", "assay_type": "physicochemical", "settings": "stored up to 8 months at 2-8° C.; 25 mg/L inhibitor; P. aeruginosa VIM-2 and K. pneumonia NDM-1", "from_the_text": "P. aeruginosa harboring VIM-2 and K. pneumonia bearing NDM-1 was used as two indicator strains."}, "[7]": {"system": "P. stuartii harboring an MBL", "experiment": "MIC of meropenem on strains harboring an MBL (Example 198)", "assay_type": "cell-based", "settings": "P. stuartii (NDM)"}, "[8]": {"system": "K. pneumoniae K66-45 (NDM-1)", "experiment": "Microbroth dilution MIC of carbapenem with/without inhibitor", "assay_type": "cell-based", "settings": "K. pneumoniae NDM-1", "experimental": "• Plate bacterial strain(s) on appropriate media: • Gram-negative bacteria with ESBLs or carbapenemases: green agar plates with 100 mg/L ampicillin • Gram-negative bacteria without β-lactamases: green agar plates • Gram-positive bacteria (Staphylococci and Enterococci): blood agar plates • Incubate o.n. at 37° C.\n(Should be used within 15 min of preparation). • Dilute the 0.5 McFarland suspension 1:100 into MH broth. […] Plate 10 μl of the dilution on MH agar plates (×2). Incubate o.n. at 37° C., count the colonies and calculate the final CFU/ml inoculum in the plate by multiplying the average number of colonies with 10000 and divide by 2. The final inoculum should be between 3-7×10^5 CFU/ml. • Add 50 μl of the prepared bacterial suspension to each well in the microtiter plate except negative growth control.\n• Calculate the desired concentration-range and volume of the compounds/antibiotics in the assay. […] Dilute the stock solution in MH broth. Make subsequent 2-fold dilutions in MH broth of the desired concentrations if a concentration range is to be tested (remember the extra dilution factor in the assay plate). Always include extra volume for pipetting. Take into consideration stock solutions that are made in buffers that have an effect on bacterial growth (e.g. DMSO)."}, "[9]": {"system": "strains producing Klebsiella pneumoniae carbapenemases (KPC)", "experiment": "Adjuvant activity with a carbapenem against KPC producers", "assay_type": "cell-based", "settings": "adjuvant together with a carbapenem"}, "[10]": {"system": "C. freundii harboring an MBL", "experiment": "MIC of meropenem on strains harboring an MBL (Example 198)", "assay_type": "cell-based", "settings": "C. freundii (NDM)"}, "[11]": {"system": "K. pneumoniae harboring an MBL", "experiment": "MIC of meropenem on strains harboring an MBL (Example 198)", "assay_type": "cell-based", "settings": "K. pneumoniae (NDM); each table line a different strain"}, "K. pneumoniae K66-45": {"system": "K. pneumoniae K66-45", "assay_type": "cell-based", "settings": "inhibitor 25 mg/L", "experimental": "After plating and grown overnight at 37° C., only single colonies, ignoring any touching the edges of the plate, were counted.\n10^9 CFU K66-45 (Mueller-Hinton broth, no selection) was plated and grown overnight, 37° C. Only single colonies, ignoring any touching the edges of the plate, were counted."}}, "note": "“And” between values parts separate entries of the source, which are not always exact repeats. Identical values can stand only once. “Also recorded” adds a separate entry of the source. Counter-ions that a name gives are not always drawn. Like-named read-outs stand apart in the source and are kept apart here.", "data": [{"smiles": "CN(C[C@H](O)[C@@H](O)[C@H](O)[C@H](O)CO)C(=O)c1ccc(CN(Cc2ccccn2)Cc2ccccn2)nc1", "note": "[Example 26, 6-((bis(pyridin-2-ylmethyl)amino)methyl)-N-methyl-N-((2S,3R,4R,5R)-2,3,4,5,6-pentahydroxyhexyl)nicotinamide]", "values": [{"measurement": "interaction with rH glyoxylase II", "setting": "rH glyoxylase II", "result": "does not interact with rH glyoxylase II"}, {"measurement": "potentiates carbapenems with a factor", "setting": "[1]", "result": "32-256 times"}, {"measurement": "reduction of the CFU levels compared to vehicle treatment", "setting": "[2]; 10-100 mg/kg Example 26 alone, blood and peritoneal fluid", "result": "did not result in reduction of the CFU levels"}, {"measurement": "Score at sampling", "setting": "[2]; Example 26 10 mg/kg s.c. + meropenem 33 mg/kg, mice 5-8", "result": 2}, {"measurement": "Score at sampling", "setting": "[2]; Example 26 10 mg/kg s.c. + vehicle, mice 17-20", "result": 2}, {"measurement": "Score at sampling", "setting": "[2]; Example 26 33 mg/kg s.c. + meropenem 33 mg/kg, mice 9-12", "result": 1}, {"measurement": "Score at sampling", "setting": "[2]; Example 26 33 mg/kg s.c. + vehicle, mice 21-24", "result": 1}, {"measurement": "Score at sampling", "setting": "[2]; Example 26 100 mg/kg s.c. + meropenem 33 mg/kg, mice 13-16", "result": 1}, {"measurement": "Score at sampling", "setting": "[2]; Example 26 100 mg/kg s.c. + vehicle, mice 25-28", "result": 1}, {"measurement": "lower CFU levels compared to vehicle treatment", "setting": "[2]; blood", "result": "3.95-4.38 log10"}, {"measurement": "lower CFU levels compared to vehicle treatment", "setting": "[2]; peritoneal fluid", "result": "3.57-3.66 log10"}, {"measurement": "enzyme activity restored by ZnSO4", "setting": "VIM-2; 15 nM impaired VIM-2 from Example 207C spiked with 0-100 μM ZnSO4", "result": 40, "unit": "%"}, {"measurement": "irreversibility of VIM-2 inhibition", "setting": "VIM-2; purified VIM-2, PD-10 column, EDTA at 100 μM", "result": "irreversibly inhibits VIM-2; also recorded: irreversibly inhibited"}, {"measurement": "effect of protein binding on inhibitory activity on VIM-2", "setting": "[3]", "result": "protein binding is not affecting the inhibitory activity"}, {"measurement": "amplification of the effect of meropenem", "setting": "[4]", "result": "> 1000", "unit": "times"}, {"measurement": "time after which CFU drops to below the limit of detection (LOD)", "setting": "[5]", "result": "5 to 10", "unit": "h"}, {"measurement": "solution stability (adjuvant activity in MIC studies after storage)", "setting": "[6]", "result": "no loss of activity even after 8 months storage time"}, {"measurement": "MIC meropenem + 25 mg/L Example 26 / Example 195", "setting": "[7]", "result": 0.25, "unit": "µg/mL"}, {"measurement": "MIC Value in K66-45 (MIC of carbapenem)", "setting": "[8]; doripenem (DOR) + 25 mg/L Example 26, batches 1-3", "result": "0.25 µg/mL and 0.125 µg/mL"}, {"measurement": "MIC Value in K66-45 (MIC of carbapenem)", "setting": "[8]; meropenem (MEM) + 25 mg/L Example 26, batches 1-3", "result": "0.125 µg/mL and 0.25 µg/mL"}, {"measurement": "activity against KPC-producing strains", "setting": "[9]", "result": "does not show activity"}]}, {"smiles": "C[C@@H](N)C(=O)N[C@H](C)C(=O)NCCc1ccc(NC(=O)c2ccc(CN(Cc3ccccn3)Cc3ccccn3)nc2)cc1", "note": "[Example 195, N-(4-(2-((R)-2-((R)-2-aminopropanamido)propanamido)ethyl)phenyl)-6-((bis(pyridin-2-ylmethyl)amino)methyl)nicotinamide hydrochloride, reference compound]", "values": [{"measurement": "solution stability (adjuvant activity in MIC studies after storage)", "setting": "[6]", "result": "a loss of activity was observed after 5 months storage, and after 8 months the activity was absent"}, {"measurement": "MIC meropenem + 25 mg/L Example 26 / Example 195", "setting": "[10]", "result": 0.06, "unit": "µg/mL"}, {"measurement": "MIC meropenem + 25 mg/L Example 26 / Example 195", "setting": "[7]", "result": 0.25, "unit": "µg/mL"}, {"measurement": "MIC meropenem + 25 mg/L Example 26 / Example 195", "setting": "[11]", "result": 0.06, "unit": "µg/mL"}, {"measurement": "RF - no of colonies", "setting": "K. pneumoniae K66-45; MEM 2 mg/L", "result": "nc (n.c. = no colonies)"}, {"measurement": "RF - no of colonies", "setting": "K. pneumoniae K66-45; MEM 4 mg/L", "result": "nc (n.c. = no colonies)"}, {"measurement": "RF - no of colonies", "setting": "K. pneumoniae K66-45; MEM 8 mg/L", "result": "nc (n.c. = no colonies)"}]}]}
